As a reminder, the IC50 is the midpoint of a concentration-inhibition curve.

Data set [1] has as its target T1, human recombinant PDE4B (Homo sapiens, UniProt Q07343).
T1 construct: made in house; host or cells: Saccharomyces cerevisiae strain YI23 harboring HDUN2.32
Nature of the data set: Inhibition of human recombinant PDE4B. It counts as biochemical. Conditions: read-out: PDE4B IC50.

For data set [2], the system named is serum TNFα levels in LPS-injected mice. As to the kind of experiment: Inhibition of serum TNFα levels in LPS-injected mice (Mouse/TNFα ED50). The data set is classed as in vivo. Conditions: Mus musculus. As to the method:
In order to assess the ability of a compound to reduce serum TNFα levels in mammals, the following protocol was employed. […] Accordingly, in vivo efficacy of a PDE4 reducing compound was shown by dosing with compound and measuring reduction of serum TNFα levels in LPS-injected mice. Female C3H mice, 20-25 gm body weight, were fasted overnight and dosed intraperitoneally with test compound in appropriate vehicle 60 minutes before LPS injection. Five μg of LPS was then injected intraperitoneally into the mice. Ninety minutes after LPS injection, mice were bled from the heart. Blood was allowed to clot overnight at 4° C. Samples were centrifuged for 10 minutes in a microcentrifuge and the serum removed and stored at −20° C. until analysis. Serum levels of TNFα were subsequently measured using a commercially available ELISA kit (Genzyme) following the protocol enclosed in the kit. The percent of inhibition of serum TNFα levels caused by the compound was determined relative to serum TNFα levels in control mice receiving vehicle alone. […]

Data set [3] relates to human peripheral blood lymphocytes. As to the kind of experiment: Lipopolysaccharide-stimulated TNFα release from human peripheral blood lymphocytes. It counts as cell-based. Particulars: Homo sapiens, Lymphocyte. As to the method:
The compounds of structural formula (II) also were tested for an ability to reduce TNFα secretion in human peripheral blood lymphocytes. The ability to reduce TNFα secretion is related to the EC50 values (i.e., the effective concentration of the compound capable of inhibiting 50% of the total TNFα).
To assess the ability of a compound to reduce TNFα secretion in human peripheral blood lymphocytes (PBL), the following tests were performed.
Heparinized blood (approximately 30 mL) drawn from human volunteers was mixed 1:1 with Dulbecco's modified phosphate-buffered saline. This mixture was mixed 1:1 with HISTOPAQUE® and centrifuged at 1,500 rpm at room temperature without braking in the swinging bucket of a Beckman model TJ6 centrifuge. Erythrocytes were centrifuged to the bottom of the tubes, and serum remained at the surface of the tubes. A layer containing lymphocytes sedimented between the serum and HISTOPAQUE® layers, and was removed by aspiration to a fresh tube. The cells were quantified and adjusted to 3×10^6 cells/mL and a 100 μL aliquot is placed into the wells of a 96 well plate. Test compounds and RPMI media (Gibco/BRL Life Sciences) are added to each of the wells 15 minutes prior to addition of bacterial LPS ([…]). The mixture was allowed to incubate for 20 hours at 37° C. in a humidified chamber. The cells then were separated by centrifuging at 800 rpm for 5 minutes at room temperature. An aliquot of 180 μL of supernatant was transferred to a new plate for determination of TNFα concentration. TNFα protein in the cell supernatant fluids was measured using a commercially available enzyme-linked immunosorbent assay (ELISA) (CYTOSCREEN® Immunoassay Kit from Biosource International).
The cell-based assay provided the following results for various pyrrolidine compounds of the present invention. The EC50 values (i.e., effective concentration of the compound capable of inhibiting 50% of the total TNFα) illustrate the ability of the present compounds to inhibit LPS-stimulated TNFα release from human PBL.

Data set [4] can be described thus: Mouse locomotor activity assay (decrease in spontaneous mobility). Conditions: female, Balb/c, in vivo. As for the experimental part: The purpose of this study was to determine the efficacy of PDE4 inhibitors in vivo in an LPS mouse model together with a determination with respect to central nervous system (CNS) side-effects manifested by a decrease in spontaneous mobility.
The test animals were female Balb/c mice, having an average weight of about 20 g. The PDE4 inhibitors, formulated in 30% Cremophor® EL, were administered via intraperitoneal (i.p.) injections at doses of 0.1, 1.0, 10.0, and 100 mg/kg. Individual dose volumes (about 150 μL) were adjusted based on the body weights measured. One hour later, 5 mg/kg LPS in a final volume of 200 μL was injected via the tail vein to each animal. Ninety minutes following the LPS treatment, the animals were bled and serum samples were collected before being stored at −70° C. until assayed.
Movement of the X-Y plane, or rearing up on the hind legs, was quantified by counting the number of “light-beam” crosses per unit of time. A decrease in the number of activity events is directly proportional to the mobility or immobilization of the animal. The quantitative scoring correlated well with the subjective measurements described above.

Data set [5] relates to recombinant human PDE4. Particulars: background, prior art; read-out: reported IC50 with respect to recombinant human PDE4; cited from earlier work.
For data set [6] the following is noted: A. Robichaud et al., Neuropharmacology 1999; cited from earlier work.
[7] abbreviates: read-out: Mouse LPS Challenge ED50.
The mark [8] stands for this setting: intraperitoneal, read-out: Mouse Inhibition of Spontaneous Mobility ED50.
The mark [9] stands for this setting: LPS-stimulated TNFα release from human PBL, read-out: PBL/TNFα EC50.
[10] abbreviates: ip, read-out: ED50, effective dose that decreases spontaneous mobility 50% of control.

SMILES strings stand for the structures. Where two headings read alike, the source gives them in different places.

T1 sequence (Q07343 whole entry): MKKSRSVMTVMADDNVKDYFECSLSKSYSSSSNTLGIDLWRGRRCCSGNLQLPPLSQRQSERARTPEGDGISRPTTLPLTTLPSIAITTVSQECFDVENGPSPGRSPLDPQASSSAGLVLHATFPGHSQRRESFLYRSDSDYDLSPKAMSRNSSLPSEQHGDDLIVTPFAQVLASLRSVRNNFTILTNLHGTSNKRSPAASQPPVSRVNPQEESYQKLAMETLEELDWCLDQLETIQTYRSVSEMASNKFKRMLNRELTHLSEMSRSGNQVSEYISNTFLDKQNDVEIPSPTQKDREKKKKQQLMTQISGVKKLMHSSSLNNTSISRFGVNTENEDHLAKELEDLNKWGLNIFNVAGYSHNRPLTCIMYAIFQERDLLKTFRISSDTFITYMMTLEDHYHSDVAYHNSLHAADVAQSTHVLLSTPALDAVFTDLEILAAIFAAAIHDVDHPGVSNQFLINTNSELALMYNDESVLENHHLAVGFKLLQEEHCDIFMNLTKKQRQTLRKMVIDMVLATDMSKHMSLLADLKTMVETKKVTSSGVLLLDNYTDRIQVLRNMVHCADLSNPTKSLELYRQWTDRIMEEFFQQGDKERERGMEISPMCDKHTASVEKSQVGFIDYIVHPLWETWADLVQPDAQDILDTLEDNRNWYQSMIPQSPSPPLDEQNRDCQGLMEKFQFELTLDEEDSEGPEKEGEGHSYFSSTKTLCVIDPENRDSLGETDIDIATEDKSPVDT

`CCCC(O)C(=O)N1C[C@@H](c2ccc(OC)c(OCC3CC3)c2)[C@](C)([C@@H](C)O)C1` (stereo partly drawn) [Example 101, 1-{(3S,4S)-3-((1R)-1-Hydroxyethyl)-4-[3-(cyclopropylmethoxy)-4-methoxyphenyl]-3-methylpyrrolidinyl)-2-hydroxypentan-1-one]: the IC50 in data set [1] came to 0.011 µM. Also, the ED50 in data set [2] (setting [7]) turned out to be 3 mg/kg; in data set [4] (setting [8]), 100 mg/kg. Further, the EC50 in data set [3] (read-out: Cell based EC50) came to 0.03 µM.

As for `COC(=O)N1CC(c2ccc(OC)c(OC3CCCC3)c2)C(C)(C(C)=O)C1` (stereo not shown) [formula (I)], the IC50 in data set [5] is ~0.002 µM.

On to `COc1ccc([C@@H]2CN(c3ccccn3)C[C@@]2(C)[C@@H](C)O)cc1OC1Cc2ccccc2C1` [Example 31, (1R)-1-[(3S,4S)-4-(3-Indan-2-yloxy-4-methoxyphenyl)-3-methyl-1-(2-pyridyl)pyrrolidin-3-yl]ethan-1-ol], for which the ED50 in data set [2] (mouse, i.p., LPS challenge, read-out: Mouse/TNFα ED50) amounted to 3 mg/kg; in data set [4] (setting [10]) it was 83 mg/kg. Besides, the EC50 in data set [3] (setting [9]) came to 0.035 µM.

As for `COc1ccc([C@@H]2CN(C(=O)C(O)c3ccccc3)C[C@@]2(C)[C@@H](C)O)cc1OCC1CC1` (stereo partly drawn) [Example 195, 1-{3-((1R)-1-Hydroxyethyl)(3S,4S)-4-[3-(cyclopropyl-methoxy)-4-methoxyphenyl]-3-methylpyrrolidinyl}-2-hydroxy-2-phenylethan-1-one], the IC50 in data set [1] was determined as 0.007 µM. Further, the ED50 is 9 mg/kg in data set [2] (setting [7]) and 100 mg/kg in data set [4] (setting [8]). Further, the EC50 in data set [3] (read-out: Cell based EC50) is 0.03 µM.

Take `COc1ccc(C2CNC(=O)C2)cc1OC1CCCC1` (stereo not shown) [Rolipram, rolipram]: the IC50 in data set [5] is ~0.2 µM.

On to `COc1ccc([C@@H]2CN(C(=O)[C@H](C)O)C[C@@]2(C)[C@@H](C)O)cc1OC1CCCC1` [Example 67, 1-[3-((1R)-1-Hydroxyethyl)(3S,4S)-4-(3-cyclopentyloxy-4-methoxyphenyl)-3-methylpyrrolidinyl](2S)-2-hydroxypropan-1-one], for which, in data set [3] (setting [9]), the EC50 stood at 0.603 µM. Further, in data set [4] (setting [10]), the ED50 was > 50 mg/kg.

With `COc1ccc([C@@H]2CN(C(=O)[C@H](N)CO)C[C@@]2(C)[C@@H](C)O)cc1OCC1CC1.Cl` [Example 109], the results for the ED50 in data set [2] (setting [7]) and in data set [4] (setting [8]) were 5 mg/kg and 100 mg/kg, respectively.

With `COc1ccc([C@@H]2CN(C(=O)[C@@H](O)CO)C[C@@]2(C)[C@@H](C)O)cc1OCC#Cc1ccccc1` [Example 264, (S)-2,3-Dihydroxy-1-{(3S,4S)-3-((R)-1-hydroxyethyl)-4-[4-methoxy-3-(3-phenylprop-2-ynyloxy)phenyl]-3-methylpyrrolidin-1-yl}propan-1-one], the IC50 in data set [1] turned out to be 0.003 µM. Also, the ED50 in data set [2] (setting [7]) is 1 mg/kg; in data set [4] (setting [8]) it was < 100 mg/kg. The EC50 in data set [3] (read-out: Cell based EC50) came to 0.01 µM.

`COc1ccc([C@@H]2CN(C(=O)[C@@H](O)Cc3ccccc3)C[C@@]2(C)[C@@H](C)O)cc1OCC#Cc1ccccc1` [Example 268, (S)-2-Hydroxy-1-{(3S,4S)-3-((R)-1-hydroxyethyl)-4-[4-methoxy-3-(3-phenylprop-2-ynyloxy)phenyl]-3-methylpyrrolidin-1-yl}-3-phenylpropan-1-one]: in data set [1], the IC50 was found to be 0.015 µM. Also, the ED50 in data set [2] (setting [7]) amounted to 5 mg/kg; in data set [4] (setting [8]) it was 100 mg/kg. In addition, the EC50 in data set [3] (read-out: Cell based EC50) was found to be 0.006 µM.

Regarding `COc1ccc([C@@H]2CN(C(=O)[C@H](N)CO)C[C@@]2(C)[C@@H](C)O)cc1OCC1CC1.Cl` [Example 109, hydrochloride], in data set [1], the IC50 was determined as 0.02 µM. In data set [3] (read-out: Cell based EC50), the EC50 stood at 0.03 µM.

Take `COc1ccc([C@@H]2CNC(=O)C2)cc1OC1CCCC1` [R-rolipram]: the “emetic potency relative to the (+)-enantiomer (S-rolipram)” value in data set [6] is reported as “about ten-fold”.
